Laboratory results published in paper PMC4008261, “Rewiring of regenerated axons by combining treadmill training with semaphorin3A inhibition” (Molecular Brain, 2014).

Assays:
[1] = tested on: Adhesion, ICAM-1-Mediated; experiment: Pharmacological profile: cell adhesion; format: cell-based
Excerpt: (§1) Table 1 Pharmacological profile of SM-345431 (part 1) | column: IC50 (μm)

[2] = tested on: Adhesion, VCAM-1-Mediated; experiment: Pharmacological profile: cell adhesion; format: cell-based
Excerpt: as §1

[3] = tested on: Adhesion, fibronectin-mediated; experiment: Pharmacological profile: cell adhesion; format: cell-based
Excerpt: as §1

SCT adult rats [4] = experiment: Angiogenesis after SCT (RECA-1 immunostaining); format: in vivo, rat; settings: for total immunostained area of vessels with lumen diameters larger than 20 μm versus control: 3 mm and 1 mm rostral/caudal to the lesion epicenter
Method: (§2) Rats were randomly divided into the following three experimental groups: 1) untrained + placebo, 2) untrained + SM-345431 and 3) trained + SM-345431. SCT was performed, and SM-345431 or placebo was administered at the lesion site via the newly developed DDS, which is described in detail below. Starting 1 week post-injury, treadmill training commenced with a BSS. Kinematic tests were performed monthly for 3 months after SCT using a rodent robotic device (Rodent robot 3000, Robomedica Inc.) that primarily assessed the performance of plantar stepping on a treadmill. Treadmill training was continued throughout the experimental period.
A total of 53 adult female Sprague-Dawley rats (200-250 g, 10-12 weeks old) were used in this study (3 rats died during the experimental period and were excluded from the statistical analysis). All procedures were approved by the experimental animal care committee of Keio University, School of Medicine and Murayama Medical Center (approval #12-8). All rats were anesthetized with an intraperitoneal injection of ketamine (100 mg/kg)/xylazine (10 mg/kg). The spinal cord at the level of the T10 lamina was exposed by T10 laminectomy, and the dorsal dura mater was opened. The exposed spinal cord was cut along the inner edge of the vertebra with a sharp micro-scissor. Two more cuts were made at the gap of the transected spinal cord by a scalpel to ensure total transection. SM-345431 or placebo was administered to the transected site via the newly developed DDS as described in detail below (Figure 1G-I). After these procedures, the back muscles and skin were closed. Rats were kept warm in an incubator (37°C) after surgery. To prevent dehydration in the rats, 10 ml of saline was subcutaneously injected daily until day 7. Ampicillin (0.4 g/kg) was also injected intramuscularly daily to prevent infection until day 7. The bladder was evacuated manually until autonomous emptying of the bladder was achieved. […] Kinematic data were recorded using similar procedures prior to re-transection surgery (on the same day) and on the day following re-transection surgery. […]

SCT adult rats [5] = experiment: Lumbar spinal circuitry after SCT (c-Fos and synapsin-1 immunostaining); format: in vivo, rat
Method: as §2
A total of 53 adult female Sprague-Dawley rats (200-250 g, 10-12 weeks old) were used in this study (3 rats died during the experimental period and were excluded from the statistical analysis). All procedures were approved by the experimental animal care committee of Keio University, School of Medicine and Murayama Medical Center (approval #12-8). All rats were anesthetized with an intraperitoneal injection of ketamine (100 mg/kg)/xylazine (10 mg/kg). The spinal cord at the level of the T10 lamina was exposed by T10 laminectomy, and the dorsal dura mater was opened. The exposed spinal cord was cut along the inner edge of the vertebra with a sharp micro-scissor. Two more cuts were made at the gap of the transected spinal cord by a scalpel to ensure total transection. SM-345431 or placebo was administered to the transected site via the newly developed DDS as described in detail below (Figure 1G-I). After these procedures, the back muscles and skin were closed. Rats were kept warm in an incubator (37°C) after surgery. To prevent dehydration in the rats, 10 ml of saline was subcutaneously injected daily until day 7. Ampicillin (0.4 g/kg) was also injected intramuscularly daily to prevent infection until day 7. The bladder was evacuated manually until autonomous emptying of the bladder was achieved. The re-transection procedure was performed at the same level as the primary SCT (15 rats total; 5 rats from each group). Kinematic data were recorded using similar procedures prior to re-transection surgery (on the same day) and on the day following re-transection surgery. For CST tracing, 10% BDA was injected as follows. Nine weeks after SM-345431 or placebo administration, BDA (10000 MW, Molecular Probes) was injected into six different sites of the sensorimotor cortices of the rats under general anesthesia (site 1: 2.0 mm lateral, 0 mm to bregma; site 2: 2.0 mm lateral, 2 mm posterior to bregma; site 3: 2.0 mm lateral, 4 mm posterior to bregma; site 4: 4 mm lateral, 0 mm to bregma; site 5: 4 mm lateral, 2 mm posterior to bregma and site 6: 4 mm lateral, 4 mm posterior to bregma). […]

For CC(=O)c1cc2c(=O)c3c(C(=O)O)c(O)c(O)cc3oc2c(C(C)=O)c1-c1coc2cc(O)c(O)c(C(=O)O)c2c1=O [SM-345431, Vinaxanthone], the IC50 [1] was greater than 10 µM, the IC50 [2] was greater than 10 µM and the IC50 [3] was greater than 10 µM. The “total immunostained area of vessels with lumen diameters larger than 20 μm versus control” value (SCT adult rats [4]; SM-345431 alone) was “significantly increased”, the “total immunostained area of vessels with lumen diameters larger than 20 μm versus control” value (SCT adult rats [4]; SM-345431 combined with treadmill training) was “significantly increased” and the RECA-1-positive areas (SCT adult rats [4]; SM-345431 combined with treadmill training, 3 mm caudal to the lesion epicenter, P < 0.05) was “significantly increased”. The “number of c-Fos + nuclei versus control SCI rats” value (SCT adult rats [5]; SM-345431 alone, L1-L5 levels, not statistically significant) was “tended to be lower”, the “synapsin-1 expression at the lumbar enlargement versus control SCT group” value (SCT adult rats [5]; SM-345431 alone, P > 0.05) was “No statistically significant difference” and the “number of c-Fos + nuclei versus control SCT rats” value (SCT adult rats [5]; SM-345431 combined with treadmill training, L4 and L5 levels, P < 0.01) was “statistically significant decrease”. The “synapsin-1 expression at the lumbar enlargement” value (SCT adult rats [5]; SM-345431 combined with treadmill training, P < 0.01 vs control SCT, P < 0.05 vs SM-345431 group) was “statistically significant increase”.
